Biological target: C-C chemokine receptor type 2 (Homo sapiens, UniProt P41597)
Assay: Receptor Binding Assay

C-C chemokine receptor type 2, sequence (P41597 whole entry): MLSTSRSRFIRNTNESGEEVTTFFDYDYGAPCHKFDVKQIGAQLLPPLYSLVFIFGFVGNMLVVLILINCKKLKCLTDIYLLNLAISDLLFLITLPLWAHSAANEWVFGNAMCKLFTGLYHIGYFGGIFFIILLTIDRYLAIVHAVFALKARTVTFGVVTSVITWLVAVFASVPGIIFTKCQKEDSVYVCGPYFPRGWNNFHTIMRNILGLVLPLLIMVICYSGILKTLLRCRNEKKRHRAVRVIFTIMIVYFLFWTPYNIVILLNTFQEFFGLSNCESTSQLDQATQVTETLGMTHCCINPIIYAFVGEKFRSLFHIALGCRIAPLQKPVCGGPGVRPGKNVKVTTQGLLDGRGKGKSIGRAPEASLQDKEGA

An IC50 of 0.172 µM was found for `C[S+]([O-])CC(O)[C@H]1CC[C@@H](N2CC(NC(=O)CNc3ncnc4ccc(C(F)(F)F)cc34)C2)CC1` (some centres not stated) [US9062048, 21] in this work.
An IC50 of 1.23 µM was found for `CCC(NC(=O)NC)[C@H]1CC[C@@H](N2CC(NC(=O)CNc3ncnc4ccc(C(F)(F)F)cc34)C2)CC1` (some centres not stated) [US9062048, 142] in this work.
